Source: paper PMC7036871, “Identification and Characterization of pantocin wh-1, a Novel Cyclic Polypeptide Produced by Pantoea dispersa W18” (Molecules, 2020)
Where a SMILES comes first, the peptide text is derived from it.

Tests used:
[1] = tested on: autoluminescent H37Ra (UAlRa); design: species or system BALB/c female mice; settings: mouse, in vivo
[2] = tested on: S. aureus 21A; test: Antimicrobial spectrum, microporous dilution method; assay type: cell-based; design: key: -: no inhibitory activity; +: Inhibit the growth of less than 10% amount of the initial bacteria; ++: Inhibit the growth of less than 50% amount of the initial bacteria; +++: Inhibit the growth of initial bacteria completely; settings: medium LB
Protocol: (§1) In this paper, the microporous dilution method was used to detect the antibacterial spectrum of pantocin wh-1 against Gram-negative and -positive bacteria. […] The time kill studies were determined over 8 h with M. smegmatis mc^2 155 being exposed to 0.5, 1, 2, or 4 × MIC of pantocin wh-1. […] At 2 × MIC and 4 × MIC, pantocin wh-1 caused bacterial eradication was completed approximately after 4 h.
(§2) The antibacterial activity of the pantocin wh-1 was detected by the microscale optical density assay (MODA) method. Briefly, 90 μL of the dilutions of pantocin wh-1, 100 μL 2 × 7H9 medium, and 10 μL of a log phase indicator strain were co-incubated in the 96-well plate at 37 °C for 48 h. For control groups, 90 μL of the dilutions of pantocin wh-1 were replaced by an equal volume of sterile water. After incubation, the 96 well microplate was measured by a microplate reader at a 600 nm wavelength (Biotek synergyH1, Biotek, Winooski, VT, USA). The amount of pantocin wh-1 produced by P. dispersa W18 was determined using two fold dilutions. […] The results were expressed in AU/mL. The MIC was defined as the last dilution of pantocin wh-1 sufficient to prevent indicator strain growth in vitro.

[3] = tested on: S. aureus B31; test: as above; assay type: cell-based; design: key: -: no inhibitory activity; +: Inhibit the growth of less than 10% amount of the initial bacteria; ++: Inhibit the growth of less than 50% amount of the initial bacteria; +++: Inhibit the growth of initial bacteria completely; settings: S. aureus B31, medium LB
Protocol: as §1, §2

[4] = tested on: Bacillus cereus; test: as above; assay type: cell-based; design: key: -: no inhibitory activity; +: Inhibit the growth of less than 10% amount of the initial bacteria; ++: Inhibit the growth of less than 50% amount of the initial bacteria; +++: Inhibit the growth of initial bacteria completely; settings: medium LB
Protocol: as §1, §2

[5] = tested on: Feces Enterococcus; test: as above; assay type: cell-based; design: key: -: no inhibitory activity; +: Inhibit the growth of less than 10% amount of the initial bacteria; ++: Inhibit the growth of less than 50% amount of the initial bacteria; +++: Inhibit the growth of initial bacteria completely; settings: medium BHI
Protocol: as §1, §2

[6] = tested on: E. coli O157; test: as above; assay type: cell-based; design: key: -: no inhibitory activity; +: Inhibit the growth of less than 10% amount of the initial bacteria; ++: Inhibit the growth of less than 50% amount of the initial bacteria; +++: Inhibit the growth of initial bacteria completely; settings: E. coli O157, medium LB
[7] = tested on: Klebsiella; test: as above; assay type: cell-based
Protocol: as §1, §2

[8] = tested on: M. smegmatis mc^2 155; test: Antibacterial activity, microscale optical density assay (MODA) / microporous dilution; assay type: cell-based, Mycobacterium smegmatis; design: key: -: no inhibitory activity; +: Inhibit the growth of less than 10% amount of the initial bacteria; ++: Inhibit the growth of less than 50% amount of the initial bacteria; +++: Inhibit the growth of initial bacteria completely; settings: M. smegmatis mc2155, medium 7H9
Protocol: as §1, §2

[9] = Effect of pH on antibacterial activity; assay type: physicochemical; settings: for Residual activity: compared with antimicrobial activity before the treatment
Excerpt: (§3) Furthermore, the antibacterial activity of pantocin wh-1 also retained nearly 100% of the initial activity within a broad pH range (pH 2–12).
(§4) The effect of various enzymes, pH, and temperature on pantocin wh-1 activity was detected as described by J.-M. Chobert et al. with a slight modification. Proteinase K, trypsin, catalase, lysozyme, DNAse, and RNAse were used to test the antibacterial activity of pantocinwh-1. To analyze the effect of different pH values on the antibacterial activity of pantocin wh-1, the sample of pantocin wh-1 was exposed to buffer with a pH value of 2–12 for 1 h at 25 °C. The effect of temperature on the anti-mycobacterial activity of pantocin wh-1 was determined by incubating pantocin wh-1 at 50 °C and 100 °C for 60 min, as well as at 121 °C for 15 min, and then detecting the bactericidal activity against M. smegmatis mc^2 155.

[10] = Effect of heat on antibacterial activity; assay type: physicochemical; settings: for Residual activity: compared with antimicrobial activity before the treatment
Excerpt: as §3
as §4, with “[…],” for “anti-mycobacterial activity of pantocin wh-1 was determined by incubating pantocin wh-1 at 50 °C and 100 °C for 60 min,”

[11] = tested on: M. smegmatis mc^2 155; test: Time kill study; assay type: cell-based, Mycobacterium smegmatis
Protocol: as §1
For detection of the time kill study, 100 μL of the indicator strain in exponential phase were added to tubes containing 5 mL of the modified 7H9 medium with pantocin wh-1 at 0.5, 1, 2, and 4 × MIC. No pantocin wh-1 was added in the control tube, then incubated at 37 °C for 8 h. At the end of each time period, tenfold serial dilutions were prepared with 0.5 mM phosphate buffer, and 100 μL cultures were plated in triplicate onto the 7H10 plates. For anti-tuberculosis activities in vivo, an auto-luminescent strain of M. tuberculosis H37Ra (AlRa) described by Tianyu Zhang was used to assess the efficacy of pantocin wh-1 in a mouse model. The relative light unit (RLU) count was determined to parallel CFU counts during the active phase of bacterial growth. AlRa with OD600 of 0.1 was injected into female BALB/c mice by tail vein. The day after injection (Day 0), RLU values were detected for 6 days in triplicate.

[12] = tested on: L .monocytogenes; test: Antimicrobial spectrum, microporous dilution method; assay type: cell-based, Listeria monocytogenes
Protocol: as §1, §2

CSCC[C@@H]1NC(=O)[C@H](C(C)C)NC(=O)[C@H](Cc2c[nH]c3ccccc23)NC(=O)[C@H](C(C)C)NC(=O)[C@H](C)NC(=O)[C@H](CS)NC(=O)[C@H](CC(N)=O)NC(=O)[C@H](Cc2ccccc2)NC(=O)CNC(=O)[C@H](Cc2ccc(O)cc2)NC(=O)CNC(=O)[C@H](Cc2ccccc2)NC(=O)[C@H](C(C)C)NC(=O)[C@H](Cc2ccc(O)cc2)NC(=O)[C@H](CS)NC(=O)[C@H](Cc2c[nH]c3ccccc23)NC1=O [pantocin wh-1] (cyclo(AVWVMWCYVFGYGFNC))
relative light unit (RLU) value [1]: significant decrease
therapeutic effect compared with streptomycin [1]: did not exceed that of streptomycin
Inhibition activity [2]: -
Inhibition activity [3]: -
Inhibition activity [4]: -
Inhibition activity [5]: -
Inhibition activity [6]: -
inhibitory activity [7]: partial inhibitory activity
Inhibition activity [8]: +++
retained initial antibacterial activity ([9]; broad pH range (pH 2–12)): ~100%
Residual activity ([9]; pH2-6, buffer 1 h at 25 °C): 90%
Residual activity ([9]; pH6-8, buffer 1 h at 25 °C): 100%
Residual activity ([9]; pH8-12, buffer 1 h at 25 °C): 85%
Residual activity ([10]; Heat 50℃/ 30 min): 100%
Residual activity ([10]; Heat 100℃/ 30 min): 90%
Residual activity ([10]; Heat 121℃/ 15 min): 72%
retained activity ([10]; autoclaving at 121 °C for 30 min): 72%
heat stability ([10]; incubation at 100 °C for 30 min): heat stable
decline in colony forming units (CFU) ([11]; 0.5 and 1 × MIC, within the first 2 h, followed by bacterial regeneration to near the initial concentration): > 3 log
time to completed bacterial eradication ([11]; 2 × MIC and 4 × MIC): ~4 h
Inhibition activity ([12]; L .monocytogenes, medium BHI): + (Inhibit the growth of less than 10% amount of the initial bacteria)
inhibitory activity ([12]; Listeria monocytogenes): partial inhibitory activity
